# In PubChem BioAssay (NCI):
#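 A five-concentration, 48-hour dose response in 96-well plates underlies each endpoint, interpolated linearly between surrounding concentrations. TGI: total growth inhibition.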
# Experiments:
# Assay in all cases: DTP human tumour cell line panel, 48 h
# T-47D breast = system: T-47D breast
# SF-539 CNS = system: SF-539 CNS
# PC-3 prostate = system: PC-3 prostate
# NCI/ADR-RES ovarian = system: NCI/ADR-RES ovarian
# RPMI-8226 leukemia = system: RPMI-8226 leukemia
# SK-MEL-2 melanoma = system: SK-MEL-2 melanoma
# SR leukemia = system: SR leukemia
# CAKI-1 renal = system: CAKI-1 renal
# HCT-116 colon = system: HCT-116 colon
# TK-10 renal = system: TK-10 renal
# KM12 colon = system: KM12 colon
# U251 CNS = system: U251 CNS
# SN12C renal = system: SN12C renal
# NCI-H226 lung = system: NCI-H226 lung
# NCI-H522 lung = system: NCI-H522 lung
# MDA-MB-231 breast = system: MDA-MB-231 breast
# HOP-62 NSCLC = system: HOP-62 NSCLC
# CCRF-CEM leukemia = system: CCRF-CEM leukemia
# SK-MEL-5 melanoma = system: SK-MEL-5 melanoma
# EKVX NSCLC = system: EKVX NSCLC
# DU-145 prostate = system: DU-145 prostate
# SF-268 CNS = system: SF-268 CNS
# SK-MEL-28 melanoma = system: SK-MEL-28 melanoma
# UACC-62 melanoma = system: UACC-62 melanoma
# IGROV1 ovarian = system: IGROV1 ovarian
# UO-31 renal = system: UO-31 renal
# OVCAR-8 ovarian = system: OVCAR-8 ovarian
# SNB-75 CNS = system: SNB-75 CNS
# A549 NSCLC = system: A549 NSCLC
# SNB-19 CNS = system: SNB-19 CNS
# RXF 393 renal = system: RXF 393 renal
# K-562 leukemia = system: K-562 leukemia
# 786-0 renal = system: 786-0 renal
# MOLT-4 leukemia = system: MOLT-4 leukemia
# A498 renal = system: A498 renal
# HOP-92 NSCLC = system: HOP-92 NSCLC
# SF-295 CNS = system: SF-295 CNS
# SK-OV-3 ovarian = system: SK-OV-3 ovarian
# HL-60(TB) leukemia = system: HL-60(TB) leukemia
# OVCAR-5 ovarian = system: OVCAR-5 ovarian
# HCC-2998 colon = system: HCC-2998 colon
# LOX IMVI melanoma = system: LOX IMVI melanoma
# M14 melanoma = system: M14 melanoma
# ACHN renal = system: ACHN renal
# HCT-15 colon = system: HCT-15 colon
# OVCAR-4 ovarian = system: OVCAR-4 ovarian
# NCI-H460 lung = system: NCI-H460 lung
# HS 578T breast = system: HS 578T breast
# MALME-3M melanoma = system: MALME-3M melanoma
# NCI-H23 lung = system: NCI-H23 lung
# HT29 colon = system: HT29 colon
# BT-549 breast = system: BT-549 breast
# UACC-257 melanoma = system: UACC-257 melanoma
# MCF7 breast = system: MCF7 breast
# MDA-N = system: MDA-N
# MDA-MB-435 = system: MDA-MB-435
# COLO 205 colon = system: COLO 205 colon
# SW-620 colon = system: SW-620 colon
# OVCAR-3 ovarian = system: OVCAR-3 ovarian
structure (smiles),measurement,setting,value
NCCCN1c2ccccc2Sc2ccc(Cl)cc21,TGI,T-47D breast,> 9.08 µM
same,TGI,SF-539 CNS,> 10 µM
same,TGI,PC-3 prostate,> 10 µM
same,TGI,NCI/ADR-RES ovarian,> 10 µM
same,TGI,RPMI-8226 leukemia,> 10 µM
same,TGI,SK-MEL-2 melanoma,> 10 µM
same,TGI,SR leukemia,> 8.89 µM
same,TGI,CAKI-1 renal,> 10 µM
same,TGI,HCT-116 colon,7.03 µM
same,TGI,TK-10 renal,> 10 µM
same,TGI,KM12 colon,> 6.37 µM
same,TGI,U251 CNS,> 10 µM
same,TGI,SN12C renal,> 10 µM
same,TGI,NCI-H226 lung,> 10 µM
same,TGI,NCI-H522 lung,> 5.15 µM
same,TGI,MDA-MB-231 breast,> 8.72 µM
same,TGI,HOP-62 NSCLC,> 10 µM
same,TGI,CCRF-CEM leukemia,> 10 µM
same,TGI,SK-MEL-5 melanoma,> 5.52 µM
same,TGI,EKVX NSCLC,> 10 µM
same,TGI,DU-145 prostate,> 10 µM
same,TGI,SF-268 CNS,> 10 µM
same,TGI,SK-MEL-28 melanoma,> 10 µM
same,TGI,UACC-62 melanoma,> 10 µM
same,TGI,IGROV1 ovarian,> 10 µM
same,TGI,UO-31 renal,> 10 µM
same,TGI,OVCAR-8 ovarian,> 10 µM
same,TGI,SNB-75 CNS,> 10 µM
same,TGI,A549 NSCLC,> 10 µM
same,TGI,SNB-19 CNS,> 10 µM
same,TGI,RXF 393 renal,> 10 µM
same,TGI,K-562 leukemia,> 8.41 µM
same,TGI,786-0 renal,> 10 µM
same,TGI,MOLT-4 leukemia,> 10 µM
same,TGI,A498 renal,> 10 µM
same,TGI,HOP-92 NSCLC,> 10 µM
same,TGI,SF-295 CNS,> 10 µM
same,TGI,SK-OV-3 ovarian,> 10 µM
same,TGI,HL-60(TB) leukemia,> 10 µM
same,TGI,OVCAR-5 ovarian,> 9.34 µM
same,TGI,HCC-2998 colon,4.2 µM
same,TGI,LOX IMVI melanoma,7.31 µM
same,TGI,M14 melanoma,3.21 µM
same,TGI,ACHN renal,> 10 µM
same,TGI,HCT-15 colon,> 10 µM
same,TGI,OVCAR-4 ovarian,> 10 µM
same,TGI,NCI-H460 lung,> 7.31 µM
same,TGI,HS 578T breast,> 10 µM
same,TGI,MALME-3M melanoma,> 10 µM
same,TGI,NCI-H23 lung,> 10 µM
same,TGI,HT29 colon,> 6.59 µM
same,TGI,BT-549 breast,> 10 µM
same,TGI,UACC-257 melanoma,> 10 µM
same,TGI,MCF7 breast,3.21 µM
same,TGI,MDA-N,> 5.98 µM
same,TGI,MDA-MB-435,4.01 µM
same,TGI,COLO 205 colon,3.27 µM
same,TGI,SW-620 colon,> 7 µM
same,TGI,OVCAR-3 ovarian,> 10 µM
